From patent US8497277B2, “Inhibitors of Bruton's tyrosine kinase” (Pharmacyclics, Inc., priority 2006, dated 2013)

Legend:
in vivo = settings: female, Balb/c, mouse, plasma, po
Btk = Btk (Homo sapiens (Human), UniProt Q06187); test: Btk acellular kinase assay (TR-FRET); settings: Btk IC50 relative to compound 4
DHL-6 cells = test: DHL-6 cell growth (Alamar Blue assay); format: cell-based; settings: 3E4 DHL-6 cells/well in complete media, 0.1% DMSO

Sequence of Btk (Q06187 whole entry): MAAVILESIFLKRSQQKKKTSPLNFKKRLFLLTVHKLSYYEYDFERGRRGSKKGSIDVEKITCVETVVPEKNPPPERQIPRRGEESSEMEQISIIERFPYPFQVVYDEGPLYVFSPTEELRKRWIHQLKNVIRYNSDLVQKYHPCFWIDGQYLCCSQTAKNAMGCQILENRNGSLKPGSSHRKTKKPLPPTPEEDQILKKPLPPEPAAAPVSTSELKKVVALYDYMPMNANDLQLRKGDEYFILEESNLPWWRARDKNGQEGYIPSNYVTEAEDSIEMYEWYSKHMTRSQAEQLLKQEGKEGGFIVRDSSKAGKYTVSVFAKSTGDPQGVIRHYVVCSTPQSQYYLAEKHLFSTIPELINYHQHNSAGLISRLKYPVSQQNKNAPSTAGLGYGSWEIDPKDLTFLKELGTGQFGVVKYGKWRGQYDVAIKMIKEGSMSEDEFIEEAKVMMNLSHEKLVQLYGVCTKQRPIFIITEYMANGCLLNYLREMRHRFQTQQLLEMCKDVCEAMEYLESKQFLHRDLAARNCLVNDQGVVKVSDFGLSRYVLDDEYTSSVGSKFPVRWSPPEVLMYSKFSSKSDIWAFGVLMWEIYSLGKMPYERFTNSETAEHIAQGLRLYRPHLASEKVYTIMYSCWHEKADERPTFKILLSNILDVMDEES

SMILES: C=CC(=O)N1CCCC(n2nc(-c3ccc(Oc4ccccc4)cc3)c3c(N)ncnc32)C1 (stereo not drawn) [Compound 4, 1-(3-(4-amino-3-(4-phenoxyphenyl)-1H-pyrazolo[3,4-d]pyrimidin-1-yl)piperidin-1-yl)prop-2-en-1-one]
- Tmax (in vivo): 2 h

SMILES: C/C=C/C(=O)N1CCCC(n2nc(-c3ccc(Oc4ccccc4)cc3)c3c(N)ncnc32)C1 (stereo not drawn) [Compound 5, (E)-1-(3-(4-amino-3-(4-phenoxyphenyl)-1H-pyrazolo[3,4-d]pyrimidin-1-yl)piperidin-1-yl)but-2-en-1-one]
- fold less potent than 4 (Btk): 28 fold

SMILES: CN(C)C/C=C/C(=O)N1CCCC(n2nc(-c3ccc(Oc4ccccc4)cc3)c3c(N)ncnc32)C1 (stereo not drawn) [Compound 15, (E)-1-(3-(4-amino-3-(4-phenoxyphenyl)-1H-pyrazolo[3,4-d]pyrimidin-1-yl)piperidin-1-yl)-4-(dimethylamino)but-2-en-1-one]
- growth of DHL-6 cells (DHL-6 cells): inhibit growth
